The structures appear in SMILES notation. Where a SMILES comes first, the peptide text is derived from it. Bridges are numbered along the chain shown (N, C = ends).

The series is described as follows: Determination of the protein binding (90% serum, 30 kDa filter, HPLC). It counts as in vitro ADME. Conditions: serum. On the procedure:
Protein binding assays were performed as follows. The purified peptides were mixed with 90% serum and centrifuged through a 30 kDa filter. The ultra-filtrate and the non filtrated serum samples were quantified by HPLC measurements and the protein binding was subsequently calculated.
In turn, `CC(C)[C@@H]1NC(=O)CNC(=O)[C@H](CC(N)=O)NC(=O)[C@H](CCCNC(=N)N)NC(=O)[C@H](Cc2ccc(O)cc2)NC(=O)[C@H](C(C)C)NC(=O)[C@@H]2CSSC[C@H](NC(=O)[C@H](CCCNC(=N)N)NC(=O)[C@H](CCCNC(=N)N)NC1=O)C(=O)N[C@@H](Cc1ccc(O)cc1)C(=O)N[C@@H](CCCNC(=N)N)C(=O)N[C@@H](CCCNC(=N)N)C(=O)N[C@H](C(=O)N[C@@H](CC(N)=O)C(=O)O)CSSC[C@H](NC(=O)[C@H](Cc1ccccc1)NC(=O)CN)C(=O)N[C@@H](Cc1ccc(O)cc1)C(=O)N[C@@H](CC(N)=O)C(=O)N[C@@H](C(C)C)C(=O)N2` [compound 207] (H-GFCYNVCVYRNGVRRCYRRCN-OH; disulfide 3-20, 7-16 (inferred); N-terminus and C-terminus assumed) had a fraction unbound of 0.09.

Take `CC(C)[C@@H]1NC(=O)CNC(=O)[C@H](CC(N)=O)NC(=O)[C@H](CCCNC(=N)N)NC(=O)[C@H](Cc2ccc(O)cc2)NC(=O)[C@H](C(C)C)NC(=O)[C@@H]2CSSC[C@H](NC(=O)[C@H](Cc3c[nH]c4ccccc34)NC(=O)[C@H](CCCNC(=N)N)NC1=O)C(=O)N[C@@H](Cc1c[nH]cn1)C(=O)N[C@@H](CCCNC(=N)N)C(=O)N[C@@H](CCCNC(=N)N)C(=O)N[C@H](C(=O)N[C@@H](CC(N)=O)C(=O)O)CSSC[C@H](NC(=O)[C@H](Cc1ccccc1)NC(=O)CN)C(=O)N[C@@H](Cc1c[nH]c3ccccc13)C(=O)N[C@@H](CC(N)=O)C(=O)N[C@@H](C(C)C)C(=O)N2` [compound 253] (H-GFCWNVCVYRNGVRWCHRRCN-OH; disulfide 3-20, 7-16 (inferred); N-terminus and C-terminus assumed): the fraction unbound was 0.06. Turning to `CC(C)[C@@H]1NC(=O)CNC(=O)[C@H](CCCNC(=N)N)NC(=O)[C@H](CCCNC(=N)N)NC(=O)[C@H](Cc2ccc(O)cc2)NC(=O)[C@H](C(C)C)NC(=O)[C@@H]2CSSC[C@H](NC(=O)[C@H](C(C)C)NC(=O)[C@H](CCCNC(=N)N)NC1=O)C(=O)N[C@@H](Cc1c[nH]cn1)C(=O)N[C@@H](CCCNC(=N)N)C(=O)N[C@@H](CCCNC(=N)N)C(=O)N[C@H](C(=O)N[C@@H](CC(N)=O)C(=O)O)CSSC[C@H](NC(=O)[C@H](Cc1ccccc1)NC(=O)CN)C(=O)N[C@@H](Cc1c[nH]c3ccccc13)C(=O)N[C@@H](CC(N)=O)C(=O)N[C@@H](C(C)C)C(=O)N2` [compound 234] (H-GFCWNVCVYRRGVRVCHRRCN-OH; disulfide 3-20, 7-16 (inferred); N-terminus and C-terminus assumed), the fraction unbound was 0.14. To `CC(C)[C@@H]1NC(=O)[C@@H]2CSSC[C@H](NC(=O)[C@H](CCCCN)NC(=O)[C@H](CCCNC(=N)N)NC(=O)[C@H](C)NC(=O)CNC(=O)[C@H](CC(N)=O)NC(=O)[C@H](CCCNC(=N)N)NC(=O)[C@H](CCCCN)NC1=O)C(=O)N[C@@H](Cc1c[nH]cn1)C(=O)N[C@@H](CCCNC(=N)N)C(=O)N[C@@H](CCCNC(=N)N)C(=O)N[C@H](C(=O)N[C@@H](CC(N)=O)C(=O)O)CSSC[C@H](NC(=O)[C@H](Cc1ccccc1)NC(=O)CN)C(=O)N[C@@H](Cc1c[nH]c3ccccc13)C(=O)N[C@@H](Cc1ccc(O)cc1)C(=O)N[C@@H](C(C)C)C(=O)N2` [compound 454] (H-GFCWYVCVKRNGARKCHRRCN-OH; disulfide 3-20, 7-16 (inferred); N-terminus and C-terminus assumed) belongs 0.1; to `CC(C)[C@@H]1NC(=O)CNC(=O)[C@H](CC(N)=O)NC(=O)[C@H](CCCNC(=N)N)NC(=O)[C@H](Cc2ccc(O)cc2)NC(=O)[C@H](C(C)C)NC(=O)[C@@H]2CSSC[C@H](NC(=O)[C@H](C(C)C)NC(=O)[C@H](CCCNC(=N)N)NC1=O)C(=O)N[C@@H](Cc1c[nH]cn1)C(=O)N[C@@H](CCCNC(=N)N)C(=O)N[C@@H](CCCNC(=N)N)C(=O)N[C@H](C(=O)N[C@@H](CC(N)=O)C(=O)O)CSSC[C@H](NC(=O)[C@H](Cc1ccccc1)NC(=O)CN)C(=O)N[C@@H](Cc1ccc(O)cc1)C(=O)N[C@@H](CCCNC(=N)N)C(=O)N[C@@H](C(C)C)C(=O)N2` [compound 210] (H-GFCYRVCVYRNGVRVCHRRCN-OH; disulfide 3-20, 7-16 (inferred); N-terminus and C-terminus assumed), 0.11; to `CC(C)[C@@H]1NC(=O)CNC(=O)[C@H](CC(N)=O)NC(=O)[C@H](CCCNC(=N)N)NC(=O)[C@H](Cc2ccc(O)cc2)NC(=O)[C@H](C(C)C)NC(=O)[C@@H]2CSSC[C@H](NC(=O)[C@H](C(C)C)NC(=O)[C@H](CCCNC(=N)N)NC1=O)C(=O)N[C@@H](Cc1c[nH]cn1)C(=O)N[C@@H](CCCNC(=N)N)C(=O)N[C@@H](CCCNC(=N)N)C(=O)N[C@H](C(=O)N[C@@H](CCCCN)C(=O)O)CSSC[C@H](NC(=O)[C@H](Cc1ccccc1)NC(=O)CN)C(=O)N[C@@H](Cc1c[nH]c3ccccc13)C(=O)N[C@@H](CC(N)=O)C(=O)N[C@@H](C(C)C)C(=O)N2` [compound 284] (H-GFCWNVCVYRNGVRVCHRRCK-OH; disulfide 3-20, 7-16 (inferred); N-terminus and C-terminus assumed), 0.28. To `CC(C)[C@@H]1NC(=O)CNC(=O)[C@H](CC(N)=O)NC(=O)[C@H](CCCNC(=N)N)NC(=O)[C@H](Cc2ccc(O)cc2)NC(=O)[C@H](C(C)C)NC(=O)[C@@H]2CSSC[C@H](NC(=O)[C@H](C(C)C)NC(=O)[C@H](CCCNC(=N)N)NC1=O)C(=O)N[C@@H](Cc1c[nH]cn1)C(=O)N[C@@H](CCCNC(=N)N)C(=O)N[C@@H](CCCNC(=N)N)C(=O)N[C@H](C(=O)N[C@@H](Cc1c[nH]c3ccccc13)C(=O)O)CSSC[C@H](NC(=O)[C@H](Cc1ccccc1)NC(=O)CN)C(=O)N[C@@H](Cc1c[nH]c3ccccc13)C(=O)N[C@@H](CC(N)=O)C(=O)N[C@@H](C(C)C)C(=O)N2` [compound 291] (H-GFCWNVCVYRNGVRVCHRRCW-OH; disulfide 3-20, 7-16 (inferred); N-terminus and C-terminus assumed) belongs 0.01. To `CC(C)[C@@H]1NC(=O)CNC(=O)[C@H](CC(N)=O)NC(=O)[C@H](CCCNC(=N)N)NC(=O)[C@H](Cc2ccc(O)cc2)NC(=O)[C@H](C(C)C)NC(=O)[C@@H]2CSSC[C@H](NC(=O)[C@H](C(C)C)NC(=O)[C@H](CCCNC(=N)N)NC1=O)C(=O)N[C@@H](CCCCN)C(=O)N[C@@H](CCCNC(=N)N)C(=O)N[C@@H](CCCNC(=N)N)C(=O)N[C@H](C(=O)N[C@@H](CC(N)=O)C(=O)O)CSSC[C@H](NC(=O)[C@H](Cc1ccccc1)NC(=O)CN)C(=O)N[C@@H](Cc1c[nH]c3ccccc13)C(=O)N[C@@H](Cc1ccc(O)cc1)C(=O)N[C@@H](C(C)C)C(=O)N2` [compound 47] (H-GFCWYVCVYRNGVRVCKRRCN-OH; disulfide 3-20, 7-16 (inferred); N-terminus and C-terminus assumed) belongs 0.11. In turn, `CC(C)[C@@H]1NC(=O)[C@@H]2CSSC[C@H](NC(=O)[C@H](C(C)C)NC(=O)[C@H](CCCNC(=N)N)NC(=O)[C@H](C(C)C)NC(=O)[C@H](CCCCN)NC(=O)[C@H](CC(N)=O)NC(=O)[C@H](CCCNC(=N)N)NC(=O)[C@H](Cc3ccc(O)cc3)NC1=O)C(=O)N[C@@H](Cc1c[nH]cn1)C(=O)N[C@@H](CCCNC(=N)N)C(=O)N[C@@H](CCCNC(=N)N)C(=O)N[C@H](C(=O)N[C@@H](CC(N)=O)C(=O)O)CSSC[C@H](NC(=O)[C@H](Cc1ccccc1)NC(=O)CN)C(=O)N[C@@H](Cc1c[nH]c3ccccc13)C(=O)N[C@@H](CC(N)=O)C(=O)N[C@@H](C(C)C)C(=O)N2` [compound 227] (H-GFCWNVCVYRNKVRVCHRRCN-OH; disulfide 3-20, 7-16 (inferred); N-terminus and C-terminus assumed) showed a fraction unbound of 0.2. To `CC(C)[C@@H]1NC(=O)CNC(=O)[C@H](CC(N)=O)NC(=O)[C@H](CCCNC(=N)N)NC(=O)[C@H](Cc2ccc(O)cc2)NC(=O)[C@H](C(C)C)NC(=O)[C@@H]2CSSC[C@H](NC(=O)[C@H](C(C)C)NC(=O)[C@H](CCCNC(=N)N)NC1=O)C(=O)N[C@@H](Cc1ccc(O)cc1)C(=O)N[C@@H](CCCNC(=N)N)C(=O)N[C@@H](CCCNC(=N)N)C(=O)N[C@H](C(=O)N[C@@H](CC(N)=O)C(=O)O)CSSC[C@H](NC(=O)[C@H](Cc1ccccc1)NC(=O)CN)C(=O)N[C@@H](Cc1c[nH]c3ccccc13)C(=O)N[C@@H](Cc1ccc(O)cc1)C(=O)NCC(=O)N2` [compound 15] (H-GFCWYGCVYRNGVRVCYRRCN-OH; disulfide 3-20, 7-16 (inferred); N-terminus and C-terminus assumed) belongs 0.04; to `CC(C)[C@@H]1NC(=O)CNC(=O)[C@H](CC(N)=O)NC(=O)[C@H](CCCNC(=N)N)NC(=O)[C@H](Cc2ccc(O)cc2)NC(=O)[C@H](C(C)C)NC(=O)[C@@H]2CSSC[C@H](NC(=O)[C@H](Cc3ccc(O)cc3)NC(=O)[C@H](CCCNC(=N)N)NC1=O)C(=O)N[C@@H](Cc1c[nH]cn1)C(=O)N[C@@H](CCCNC(=N)N)C(=O)N[C@@H](CCCNC(=N)N)C(=O)N[C@H](C(=O)N[C@@H](CC(N)=O)C(=O)O)CSSC[C@H](NC(=O)[C@H](Cc1ccccc1)NC(=O)CN)C(=O)N[C@@H](Cc1c[nH]c3ccccc13)C(=O)N[C@@H](CC(N)=O)C(=O)N[C@@H](C(C)C)C(=O)N2` [compound 254] (H-GFCWNVCVYRNGVRYCHRRCN-OH; disulfide 3-20, 7-16 (inferred); N-terminus and C-terminus assumed), 0.23. To `CC(C)[C@@H]1NC(=O)CNC(=O)[C@H](C)NC(=O)[C@H](CCCNC(=N)N)NC(=O)[C@H](Cc2ccc(O)cc2)NC(=O)[C@H](C(C)C)NC(=O)[C@@H]2CSSC[C@H](NC(=O)[C@H](C(C)C)NC(=O)[C@H](CCCNC(=N)N)NC1=O)C(=O)N[C@@H](Cc1c[nH]cn1)C(=O)N[C@@H](CCCNC(=N)N)C(=O)N[C@@H](CCCNC(=N)N)C(=O)N[C@H](C(=O)N[C@@H](CC(N)=O)C(=O)O)CSSC[C@H](NC(=O)[C@H](Cc1ccccc1)NC(=O)CN)C(=O)N[C@@H](Cc1c[nH]c3ccccc13)C(=O)N[C@@H](CC(N)=O)C(=O)N[C@@H](C(C)C)C(=O)N2` [compound 230] (H-GFCWNVCVYRAGVRVCHRRCN-OH; disulfide 3-20, 7-16 (inferred); N-terminus and C-terminus assumed) belongs 0.29.

Source of the values: patent US20160158317A1, “Antimicrobial Peptide Variants and Polynucleotides Encoding Same” (Adenium Biotech A/S, priority 2010, published 2016).
